“Also recorded” adds a separate entry of the source.
What was measured:
Type in all cases: cell-based, human
[1] = tested on: LAPC4 prostate cancer cells; assay: CyQUANT cell proliferation assay, LAPC4; conditions: 10 to 50 μM, 4 days
Description: (§1) Cell culture and treatment protocols: The LNCaP prostate cancer cells used in these studies were acquired from American Type Culture Collection (Manassas, Va.). All cell lines were maintained in Dulbecco's modified Eagle's medium (DMEM; Invitrogen, Carlsbad, Calif.) containing 5% heat-inactivated fetal calf serum (FCS; Sigma, St. Louis, Mo.) with streptomycin-penicillin antibiotics (designated DMEM/FCS) in a 5% CO2 incubator at 37° C. LAPC4 prostate cancer cells adapted to growth in DMEM and 5% FCS were acquired from George Wilding (University of Wisconsin Paul P. Carbone Comprehensive Cancer Center). For experiments evaluating androgenic responses, cells were cultured in DMEM containing 4% charcoal-stripped FCS and 1% unstripped FCS (designated DMEM/CSS). […]
(§2) Cell proliferation and viability assays: Cell numbers were determined using a hemacytometer. Relative cell growth changes were determined using cells plated in 96-well tissue culture plates using the CyQUANT NF Cell Proliferation Assay Kit (Invitrogen) according to manufacturer's instructions. Cell viability was measured using trypan blue exclusion and quantified using light microscopy and hemacytometry. Additionally, cell viability was measured by propidium iodide exclusion using flow cytometry (FACScan; BD Biosciences, San Jose, Calif.) after VE and ATQ treatment.

[2] = tested on: PC3 prostate cancer cell line; assay: Growth of androgen-independent PC3 cells; conditions: 4 days, data not shown
Description: as §2

AR mRNA [3] = assay: AR mRNA expression by qPCR, LAPC4; conditions: for AR mRNA levels (qPCR): LAPC4, 4 days
Description: (§3) Messenger RNA expression analysis: Total RNA was extracted from cells using TRIzol Reagent (Invitrogen, Carlsbad, Calif.) and cDNA was prepared from total RNA using the High Capacity cDNA Reverse Transcription Kit (Applied Biosystems, Foster City, Calif.). Quantititive PCR was performed for AR expression using an Applied Biosystems 7900HT Fast Real-Time PCR System (Carlsbad, Calif.) and QuantiTect Primers Assays (Qiagen Inc., Valencia, Calif.) for AR and GAPDH mRNA.

AR mRNA [4] = assay: AR mRNA expression by qPCR, LNCaP; conditions: 4 days
Description: as §3

[5] = tested on: androgen-sensitive MMTV promoter; assay: Promoter activation assay (MMTV/luciferase) in LNCaP; conditions: 30 μM, 48 hours
Description: Promoter activation assay: LNCaP and LAPC4 prostate carcinoma cell lines were cultured in 12- or 24-well cell culture plates (Costar) in DMEM/CSS 2 to 3 days before transfection. Androgen-induced transcriptional activation was determined using a reporter construct with an MMTV promoter that regulates the expression of luciferase (Thompson T A et al., In Vitro Cell. Dev. Biol. 1993, 29A:165-170). LNCaP cells were transfected using the calcium phosphate precipitation method with an MMTV/luciferase plasmid. LAPC4 cells were transfected with an MMTV/luciferase plasmid using the FuGENE 6 Transfection Reagent (Roche Applied Science), according to the manufacturer's instructions. Twenty-four hours after transfection, cells were treated with R1881 with or without test reagents at the specified concentrations. Cell extracts were acquired 24 to 48 hours after treatment in 100 μL of Cell Culture Lysis Reagent (Promega, Madison, Wis.). Luciferase activity was measured using the Luciferase Assay Substrate (Promega, Madison, Wis.) according to instructions and read on a TD-20/20 Luminometer (Turner Designs, Sunnyvale, Calif.).

LNCaP cells = assay: LNCaP viability by propidium iodide exclusion and flow cytometry; conditions: 30 μM, 4 days
Description: as §1, §2

PSA = assay: Prostate specific antigen analysis, LNCaP medium; conditions: for R1881-induced PSA release / PSA levels in medium: 10 to 40 μM
Description: Prostate specific antigen analysis: LNCaP cells were cultured in 96-well plates (Costar) at 5,000 cells per well in DMEM/CSS 1 day before treatment. Forty-eight hours after treatment, media levels of PSA released from LNCaP cells were measured using a PSA Enzyme Immunoassay Test Kit (BioCheck, Inc., Foster City, Calif.) according to manufacturer's instructions supplied with the kit. PSA levels were normalized to cell numbers as determined using the CyQUANT NF Cell Proliferation Assay Kit (Invitrogen), as described previously.

[6] = tested on: LNCaP prostate cancer cells; assay: CyQUANT cell proliferation assay, LNCaP; conditions: 10 to 50 μM, 4 days
Description: as §1, §2

AR protein [7] = assay: Immunoblot analysis of AR protein, LNCaP; conditions: 4 days
Description: (§4) Immunoblot analysis: LNCaP or LAPC4 prostate cancer cells were plated at a density of 1×10^6 cells per 100 mm cell culture plate in 10 ml of DMEM/CSS and maintained in incubators at 37° C. in 5% CO2. […] Cell extracts were stored at −80° C. until analysis. Total protein (25 μg) from cell extracts were electrophoresed on 7.5% SDS-polyacrylamide gels and transferred to Immobilon-P membranes (Millipore Corp., Bedford, Mass.) using a GENIE wet transfer system (Idea Scientific, Minneapolis, Minn.). Membranes were blocked in Tris-buffered saline containing 5% nonfat dry milk and then incubated with mouse anti-AR (441) monoclonal antibody (Santa Cruz Biotechnology, Santa Cruz, Calif.) or mouse anti-actin antibody (A5441; Sigma). After washing, membranes were incubated with a secondary horseradish peroxidase-conjugated goat anti-mouse IgG (Biomeda, Foster City, Calif.) and analyzed using Western Lightening Chemiluminescence Reagent Plus (Boston, Mass.) on a Kodak Image Station 4000MM (Rochester, N.Y.). Band intensities were determined using Kodak Molecular Imaging Software.

AR protein [8] = assay: Immunoblot analysis of AR protein, LAPC4
Description: as §4

Structure (SMILES) | LAPC4 cell growth (CyQUANT) [1] | PC3 cell growth [2] | AR mRNA levels (qPCR) (AR mRNA [3]) | AR mRNA levels (qPCR) (AR mRNA [4]) | Androgen-induced (R1881) MMTV promoter luciferase activity [5] | Cell viability (LNCaP cells) | R1881-induced PSA release / PSA levels in medium (PSA) | LNCaP cell growth (relative growth, CyQUANT) [6] | reduction in AR protein levels (AR protein [7]; 30 μM) [fold] | AR protein levels (AR protein [7]) | reduction in AR protein levels (AR protein [8]; LAPC4, 25 μM, 4 days) [fold] | AR protein levels (AR protein [8]; LAPC4, 4 days) | decrease in AR mRNA levels (AR mRNA [3]; LAPC4, 30 μM, 4 days) [fold] | decrease in AR mRNA levels (AR mRNA [4]; 30 μM) [fold] | reduction in R1881-induced PSA release compared to untreated control cells (PSA; 10 μM) [%] | decrease in PSA release compared to untreated controls (PSA; 40 μM) [fold]
Cc1c(C)c2c(c(C)c1O)CCC(C)(CCCC(C)CCCC(C)CCCC(C)C)O2 (racemic) [VE, dl-α-tocopherol, reference compound] | modest, but significant, decrease; also recorded: decreased slightly; also recorded: much less effective | neither ATQ nor VE decreased the growth | did not affect | did not affect | significantly increased | did not affect | did not affect; also recorded: remained unchanged | – | – | – | – | – | – | – | – | –
CC1=C(C)C(=O)C(CC[C@](C)(O)CCC[C@H](C)CCC[C@H](C)CCCC(C)C)=C(C)C1=O [ATQ, α-tocopherylquinone] | dose-dependent decrease; also recorded: significantly decreased | neither ATQ nor VE decreased the growth | reduced levels | reduced levels | inhibit; also recorded: significantly reduced | significantly decreased | significantly reduced; also recorded: inhibited | dose-dependent decrease; also recorded: significantly decreased | 4 | decreased | 4 | decreased | 2 | 2 | 50 | 4

From US20080132568A1, “COMPOUNDS WITH ANTI-ANDROGENIC ACTIVITY AND THE USE THEREOF” (priority 2006, published 2008)
